Consider 5 compounds from patent US20150328147A1, “METHOD FOR INTRODUCING BIOLOGICALLY ACTIVE SUBSTANCES INTO THE BRAIN” (BBU-VITA CORP., priority 2012, published 2015).

Assay [1] concerns haloperidol catalepsy model. The following applies: for re-animation of spontaneous motor activity: nasal 2 × 50 μL after haloperidol i.p., dopamine 10^−2M (0.8 mg/kg), H2O2 10^−5M (34 ng/animal).
The subject of assay [2] is haloperidol catalepsy model.
From the text: The criteria of the evaluation: the change in spontaneous motor activity as the sum of movements of the rats in different groupings of the animals, in the “open field” test.
Assay [3] deals with haloperidol catalepsy model. This is another data set of the same source.
From the text: The criteria of the evaluation: the change in spontaneous motor activity as the sum of movements of the rats in different groupings of the animals, in the “open field” test. The animal groups: control group: “intact control” (Group I), “haloperidol i.p.” (Group II), “haloperidol i.p.+nasal dopamine” (Group III), and “haloperidol i.p.+nasal L-arginine” in various concentrations (Groups IV and V).
Assay [4] concerns haloperidol catalepsy model. The following applies: earlier demonstration (DE 102 48 601); cited from earlier work.
Assay [5] relates to sexually mature white rats. The assay is described as follows: Experiment 3: duration of phenobarbital sleep after single or fractionated nasal administration with H2O2. The following applies: phenobarbital 90 mg/kg, H2O2 10^−5M. It counts as in vivo. From the text: Experiment 3: The effect of phenobarbital was investigated experimentally on sexually mature white rats, using a nasal administration. The sleep duration conditioned by phenobarbital following nasal administration of phenobarbital was compared against the presence and absence of vaso-active and neuroactive substance. The typical results of an experiment are listed in Tab. 4.

[6] abbreviates: with nasal dopamine 10^−3M, haloperidol model.
Setting [7] is: Experiment 1, haloperidol i.p. 100 mg/kg, without H2O2, nasal dopamine 10^−3M where given, sum of movements, open field.
[8] abbreviates: Experiment 2, haloperidol i.p. 100 mg/kg, without L-arginine, nasal dopamine 10^−3M where given, sum of movements, open field.

Like-named read-outs stand apart in the source and are kept apart here.

On to `OO` [H2O2, hydrogen peroxide], for which the “re-animation of spontaneous motor activity” value in assay [1] is “did not re-animate the motor activity”. In addition, the Spontaneous activity is on record as 1.8 ± 2.2 ^##) in assay [2] (Experiment 1, haloperidol i.p., nasal H2O2 10^−4M (dopamine 10^−3M in the mixture)) and 3 ± 1.9 ^##) in assay [2] (Experiment 1, haloperidol i.p., nasal H2O2 10^−5M). For the same compound, the “minimal effective concentration of the endonasal hydrogen peroxide” value in assay [2] (setting [6]) is 10^−8 to 10^−10 M.
`N=C(N)NCCC[C@H](N)C(=O)O` [L-arginine]: the Spontaneous activity is 6.4 ± 3.4 ^##) in assay [3] (Experiment 2, haloperidol i.p., nasal L-arginine 10^−3M (dopamine 10^−3M in the mixture)) and 4.8 ± 2.7 ^##) in assay [3] (Experiment 2, haloperidol i.p., nasal L-arginine 10^−5M). Moreover, the “minimal effective concentration of the endonasal L-arginine” value in assay [3] (setting [6]) was ~10^−7 M. Further, in assay [4], the “reanimation of spontaneous motor activity by L-arginine administered nasally together with dopamine” value is on record as “able to reanimate spontaneous motor activity”.
As for `NCCc1ccc(O)c(O)c1` [dopamine], the “re-animation of spontaneous motor activity” value in assay [1] is “did not re-animate the motor activity”. Besides, the Spontaneous activity in assay [2] (setting [7]) is given as 2 ± 1.7 ^##); in assay [3] (setting [8]), 2.6 ± 1.7 ^##).
With `O=C(CCCN1CCC(O)(c2ccc(Cl)cc2)CC1)c1ccc(F)cc1` [haloperidol], the “reduction of spontaneous motor activity” value in assay [1] (single i.p. haloperidol 0.25 mg/kg, cataleptic response) was found to be 85%. For the same compound, the Spontaneous activity in assay [2] (setting [7]) is listed as 3 ± 3 ^##); in assay [3] (setting [8]) it was 3.7 ± 3 ^##).
In the case of `CCC1(c2ccccc2)C(=O)NC(=O)NC1=O` [phenobarbital], the “Duration of the experimental sleep (Minutes following the last administration)” value in assay [5] (single nasal application of the full dose 18 mg, 2 × 100 μL) came out at 128 ± 11.1 min; in assay [5] (triple nasal application of partial doses 3 × 6 (mg), interval 60 s), 161 ± 21.1 min.
